Results reported in ChEMBL document CHEMBL1153715, “An antimicrobial guanidine-bearing sesterterpene from the cultured cyanobacterium Scytonema sp” (J Nat Prod, 2009).
Values after ≈ are worked out from the molar mass of the structure shown.

Tests used:
[1] = tested on: Mycobacterium tuberculosis; experiment: Antitubercular activity against Mycobacterium tuberculosis H37Rv after 7 days by microplate alamar blue assay; assay type: functional; conditions: 168 h
Bacillus anthracis = experiment: Antibacterial activity against Bacillus anthracis after 18 hrs by broth microdilution method; assay type: functional
Staphylococcus aureus = experiment: Antibacterial activity against Staphylococcus aureus by broth microdilution method; assay type: functional
Escherichia coli = experiment: Antibacterial activity against Escherichia coli by broth microdilution method; assay type: functional
Candida albicans = experiment: Antifungal activity against Candida albicans by broth microdilution method; assay type: functional
Vero = experiment: Cytotoxicity against african green monkey Vero cells by cell Titer_Glo assay; assay type: cell-based; conditions: Chlorocebus sabaeus

Question: For C=C1CC[C@@H]2[C@](C)(CC[C@H]3[C@@]2(C)CC[C@H]2C(C)(C)CC[C@@H](O)[C@@]23C)[C@H]1CNC(=N)N [SCYTOSCALAROL], which MIC [1] is on record?
Answer: 110 µM (≈ 45.7 µg/mL)

Question: And the MIC (Bacillus anthracis)?
Answer: 6 µM (≈ 2.49 µg/mL)

Question: And the MIC (Staphylococcus aureus)?
Answer: 2 µM (≈ 0.831 µg/mL)

Question: What about the MIC (Escherichia coli) of the same compound?
Answer: 30 µM (≈ 12.5 µg/mL)

Question: And the MIC (Candida albicans)?
Answer: 4 µM (≈ 1.66 µg/mL)

Question: And the IC50 (Vero)?
Answer: 135 µM
